Measurements taken from patent US5350762A, “Tetrahydrocyclopent[B]indole methanamines and related compounds” (priority 1993, dated 1994).
pIC50: −log10 of the molar value. Where a name gives a salt, the structure may show the parent alone.

Columns and labels:
[1] = target: T1, acetylcholinesterase (AChE) (Rattus norvegicus, UniProt P37136); experiment: In vitro inhibition of acetylcholinesterase activity in rat striatum; assay type: biochemical, Rat (male Wistar)
T1 construct: corpora striata dissected free, weighed and homogenized in 19 volumes; from tissue; host or cells: male Wistar rat corpora striata, whole homogenate
T1 sequence (P37136 32-614): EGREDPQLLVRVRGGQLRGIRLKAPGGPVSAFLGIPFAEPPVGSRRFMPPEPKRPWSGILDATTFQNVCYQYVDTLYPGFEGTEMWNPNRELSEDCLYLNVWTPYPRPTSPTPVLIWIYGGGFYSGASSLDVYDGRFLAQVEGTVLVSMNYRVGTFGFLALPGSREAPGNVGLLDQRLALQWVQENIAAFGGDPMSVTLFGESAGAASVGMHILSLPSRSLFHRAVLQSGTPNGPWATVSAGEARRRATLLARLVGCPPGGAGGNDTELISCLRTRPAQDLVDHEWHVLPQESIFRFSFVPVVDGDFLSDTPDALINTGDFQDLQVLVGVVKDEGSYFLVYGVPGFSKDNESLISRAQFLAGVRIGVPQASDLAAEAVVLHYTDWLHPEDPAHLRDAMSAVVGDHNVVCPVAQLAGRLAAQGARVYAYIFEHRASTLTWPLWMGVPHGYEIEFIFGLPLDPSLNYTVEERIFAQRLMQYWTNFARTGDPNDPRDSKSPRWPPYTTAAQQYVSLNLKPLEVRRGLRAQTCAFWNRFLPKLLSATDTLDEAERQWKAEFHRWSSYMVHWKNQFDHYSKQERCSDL
Excerpt: Cholinesterase Inhibition Assay
Cholinesterases are found throughout the body, both in the brain and in serum. However, only brain acetylcholinesterase (AChE) distribution is correlated with central cholinergic innervation.
In Vitro Inhibition of Acetylcholinesterase Activity in Rat Striatum
The method described below was used in this invention for assaying cholinesterase activity.
1. 0.05M Phosphate buffer, pH 7.2
(c) add (a) to (b) until pH reaches 7.2
4. […] If active, IC50 values are determined from the inhibitory activity of subsequent concentrations.
Enzyme activity is measured with the Beckman DU-50 spectrophotometer. This method can be used for IC50 determinations and for measuring kinetic constants.
Reagents are added to the blank and sample cuvettes as follows:
Blank values are determined for each run to control for non-enzymatic hydrolysis of substrate and these values are automatically subtracted by the kindata program available on kinetics soft-pac module. This program also calculates the rate of absorbance change for each cuvette.
Substrate concentration is 10 mM diluted 1:2 in assay yielding final concentration of 5 mM. DTNB concentration is 0.5 mM yielding 0.25 mM final concentration. [formula] IC50 values are calculated from log-probit analysis

[2] = target: T2, Type B monoamine oxidase (MAO-B) (Rattus norvegicus, UniProt P19643); experiment: Inhibition of Type B monoamine oxidase activity in rat brain synaptosomes; assay type: biochemical, Rat (male Wistar); conditions: [14C]-PEA substrate 200 μM, 15 min preincubation, 30 min at 37° C., pH 7.4, read-out: Inhibitory Concentration - IC50, Type-B
T2 construct: served as the tissue source for mitochondrial MAO; from tissue; host or cells: male Wistar rat whole brain minus cerebellum, P2 pellet (18,000 g)
T2 sequence (P19643 1-520): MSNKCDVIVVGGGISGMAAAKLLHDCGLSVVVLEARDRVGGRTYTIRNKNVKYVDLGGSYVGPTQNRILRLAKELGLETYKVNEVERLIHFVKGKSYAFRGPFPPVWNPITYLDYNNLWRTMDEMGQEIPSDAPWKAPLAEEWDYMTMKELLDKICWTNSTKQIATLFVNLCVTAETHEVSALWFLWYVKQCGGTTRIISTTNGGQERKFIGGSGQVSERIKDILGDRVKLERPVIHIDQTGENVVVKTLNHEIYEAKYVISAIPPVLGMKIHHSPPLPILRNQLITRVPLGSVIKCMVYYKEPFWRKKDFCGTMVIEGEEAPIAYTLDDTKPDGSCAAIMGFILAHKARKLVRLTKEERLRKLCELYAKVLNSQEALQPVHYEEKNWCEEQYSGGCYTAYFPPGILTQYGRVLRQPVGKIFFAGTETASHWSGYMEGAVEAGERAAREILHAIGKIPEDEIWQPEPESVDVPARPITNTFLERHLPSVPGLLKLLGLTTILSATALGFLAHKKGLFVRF
Excerpt: (§1) Male Wistar rats weighing 150-250 grams were sacrificed and the brains rapidly removed.

[3] = target: T3, Type A monoamine oxidase (MAO-A) (Rattus norvegicus, UniProt P21396); experiment: Inhibition of Type A monoamine oxidase activity in rat brain synaptosomes; assay type: biochemical, Rat (male Wistar); conditions: [3H]-5HT substrate 200 μM, 15 min preincubation, 30 min at 37° C., pH 7.4, read-out: Inhibitory Concentration - IC50, Type-A
T3 construct: served as the tissue source for mitochondrial MAO; from tissue; host or cells: male Wistar rat whole brain minus cerebellum, P2 pellet (18,000 g)
T3 sequence (P21396 1-526): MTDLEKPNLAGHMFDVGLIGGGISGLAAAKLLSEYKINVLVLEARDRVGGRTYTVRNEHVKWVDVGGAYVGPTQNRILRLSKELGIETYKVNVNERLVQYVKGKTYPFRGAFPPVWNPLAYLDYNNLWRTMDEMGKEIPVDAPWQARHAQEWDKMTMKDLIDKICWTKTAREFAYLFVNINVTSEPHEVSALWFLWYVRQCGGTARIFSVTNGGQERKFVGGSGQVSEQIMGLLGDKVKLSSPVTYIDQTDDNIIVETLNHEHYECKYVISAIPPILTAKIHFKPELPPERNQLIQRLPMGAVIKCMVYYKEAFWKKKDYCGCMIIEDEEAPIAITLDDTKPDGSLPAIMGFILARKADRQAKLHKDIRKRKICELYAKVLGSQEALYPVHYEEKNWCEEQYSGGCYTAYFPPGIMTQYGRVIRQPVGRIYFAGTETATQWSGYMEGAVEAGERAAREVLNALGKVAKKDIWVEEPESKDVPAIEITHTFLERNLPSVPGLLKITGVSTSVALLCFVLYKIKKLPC
Excerpt: as §1

[4] = system: monoamine oxidase type A and type B; conditions: in words; reference (2), Fowler and Ross 1984; cited from earlier work

Q: With `CNC(=O)Oc1ccc2c(c1)c1c(n2C)CC(CN(C)C)C1` (centres unmarked) [1,2,3,4-Tetrahydro-2-[(dimethylamino)methyl]-4-methylcyclopent[b]indol-7-yl-methylcarbamate hydrochloride] as the molecule, how does the pIC50 [1] read?
A: Its pIC50 is 5.02.

Q: Which results are given for `CCNCC1Cc2c(n(C)c3ccc(OC)cc23)C1` (centres unmarked) [1,2,3,4-Tetrahydro-4-methyl-7-methoxy-N-ethylcyclopent[b]indole-2-methanamine maleate]?
A: pIC50 [2]: 3.15; pIC50 [3]: 3.74

Q: What does the source list for `COc1ccc2c(c1)c1c(n2C)CC(CN)C1` (centres unmarked) [1,2,3,4-Tetrahydro-7-methoxy-4-methylcyclopent[b]indole-2-methanamine hydrochloride]?
A: pIC50 [2]: 3.54; pIC50 [3]: 4.23

Q: With `C#CCN(C)CCCOc1ccc(Cl)cc1Cl` [Clorgyline] as the molecule, how does the “selectivity of inhibition of type A / type B monoamine oxidase” value [4] read?
A: Its value is “selective inhibitor of the type A enzyme”.

Q: Which “selectivity of inhibition of type A / type B monoamine oxidase” value [4] does the source give for `CC(C)NNC(=O)c1ccncc1` [iproniazid] here?
A: Its value is “nonselective inhibitors”.

Q: With `C#CCN(C)Cc1ccccc1` [pargyline] as the molecule, how does the “selectivity of inhibition of type A / type B monoamine oxidase” value [4] read?
A: The value was “selective inhibitors of the type B enzyme”.
